Measured values from patent US9981950B2, “Triazoles as NR2B receptor inhibitors” (Janssen Pharmaceuticals, Inc., priority 2014, dated 2018).

Tests used:
hERG-receptor = hERG-receptor (Homo sapiens (Human), UniProt Q12809); assay: HERGBD: inhibition of specific 3H-Dofetilide binding to the hERG-receptor; details: HEK cell membranes with human ERG, Hill-plot 2-parameter-model
Summary of the method: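 Membranes from HEK cells stably expressing human ERG incubated 90 min at RT with 1.5 nmol/l 3H-dofetilide in 20 mM HEPES/0.1 mM KCl pH 7.2, inhibitor in 1% DMSO. Nonspecific binding with […] dofetilide; bound ligand separated by filtration and scintillation counted.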

rat NR1/NR2B receptor [1] = target: T1, rat NR1/NR2B receptor (Rattus norvegicus (Rat), UniProt P35439+Q00960); assay: NR2B binding assay: inhibition of specific [3H]-Ifenprodil binding to the rat NR1/NR2B receptor; details: rat brain membranes, Hill-plot 2-parameter-model
T1 sequence (Q00960 27-1482, other chains not shown): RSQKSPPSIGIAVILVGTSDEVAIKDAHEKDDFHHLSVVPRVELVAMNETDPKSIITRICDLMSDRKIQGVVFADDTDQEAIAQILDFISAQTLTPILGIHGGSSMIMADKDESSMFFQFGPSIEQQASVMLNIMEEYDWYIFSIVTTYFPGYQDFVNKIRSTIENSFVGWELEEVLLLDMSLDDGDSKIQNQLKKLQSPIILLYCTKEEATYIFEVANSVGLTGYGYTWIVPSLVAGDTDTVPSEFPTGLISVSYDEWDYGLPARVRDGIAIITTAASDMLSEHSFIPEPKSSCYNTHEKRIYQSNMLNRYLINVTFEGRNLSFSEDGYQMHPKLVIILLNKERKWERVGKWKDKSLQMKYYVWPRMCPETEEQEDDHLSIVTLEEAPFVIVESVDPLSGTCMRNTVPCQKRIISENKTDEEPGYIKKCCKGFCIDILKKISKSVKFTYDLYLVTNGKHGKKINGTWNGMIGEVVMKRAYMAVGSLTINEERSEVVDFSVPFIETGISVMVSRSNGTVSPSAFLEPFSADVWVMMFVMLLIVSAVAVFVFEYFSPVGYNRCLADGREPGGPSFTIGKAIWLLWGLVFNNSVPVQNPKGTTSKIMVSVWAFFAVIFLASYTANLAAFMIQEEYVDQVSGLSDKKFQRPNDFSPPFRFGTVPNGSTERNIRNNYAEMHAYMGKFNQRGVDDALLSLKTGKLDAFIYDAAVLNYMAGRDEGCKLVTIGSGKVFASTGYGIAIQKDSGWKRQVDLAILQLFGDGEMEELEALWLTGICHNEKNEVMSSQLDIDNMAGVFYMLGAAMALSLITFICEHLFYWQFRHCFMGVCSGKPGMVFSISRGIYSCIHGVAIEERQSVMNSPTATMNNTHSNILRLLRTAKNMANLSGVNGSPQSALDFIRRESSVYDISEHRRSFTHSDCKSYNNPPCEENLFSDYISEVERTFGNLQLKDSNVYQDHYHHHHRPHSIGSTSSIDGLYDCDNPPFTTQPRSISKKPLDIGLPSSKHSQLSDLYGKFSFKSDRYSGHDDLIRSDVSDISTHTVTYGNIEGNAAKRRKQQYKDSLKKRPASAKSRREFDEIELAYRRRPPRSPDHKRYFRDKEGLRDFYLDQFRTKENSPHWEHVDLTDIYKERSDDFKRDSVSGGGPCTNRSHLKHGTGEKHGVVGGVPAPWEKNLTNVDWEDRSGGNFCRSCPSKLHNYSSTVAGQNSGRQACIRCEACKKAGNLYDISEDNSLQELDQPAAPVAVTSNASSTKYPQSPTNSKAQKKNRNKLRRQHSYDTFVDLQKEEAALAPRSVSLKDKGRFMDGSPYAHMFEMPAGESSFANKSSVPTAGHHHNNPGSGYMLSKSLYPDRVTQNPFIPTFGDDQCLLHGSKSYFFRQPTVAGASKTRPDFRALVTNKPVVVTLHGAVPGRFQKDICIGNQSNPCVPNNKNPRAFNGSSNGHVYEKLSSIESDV
Protocol: Inhibition of Specific Binding to the Rat NR1/NR2B Receptor
Male Wistar rats (180 to 200 g) were killed by suffocation in a CO2 chamber for two minutes. Whole brains without cerebellum were removed and dissected on ice, placed into closed vials and stored at −70° C.
Membrane fractions were prepared and tested using standard techniques. At the time of the assay, 1 g of the brains was placed into 25 ml of 50 mM Tris/10 mM EDTA buffer, pH 7.1, (25 vol. per g of original tissue) and homogenized for 30 sec at 20000 rpm with an Ultraturrax T25 (Jahnke & Kunkel, IKA-Labortechnik, Staufen, Germany). The homogenate was centrifuged at 4° C. for 10 min at 48000 g (OPTIMA L-70, Beckman, Palo Alto, Calif. 94304, USA).
The supernatant was discarded and the pellet was homogenized on ice for 30 sec at 20000 rpm with an Ultraturrax and again centrifuged at 48000 g for 30 minutes at 4° C. The resulted pellet was resuspended in 25 ml of 50 mM Tris/10 mM EDTA buffer, homogenized for 30 sec with an Ultraturrax, aliquoted, frozen at −70° C. and stored until use.
After thawing on the day of the assay, a 5 ml membrane aliquot was centrifuged at 48000 g for 30 min at 4° C. The pellet was resuspended in 5 ml of 5 mM Tris/1 mM EDTA buffer, pH 7.4, homogenized for 30 sec at 20000 rpm with an Ultraturrax and centrifuged at 48000 g for 30 min at 4° C. This was repeated twice. The final pellet was homogenized in 5 ml of 5 mM Tris/l mM EDTA buffer at 4° C. with an Ultraturrax and used for the Ifenprodil-binding assay as described in the following.
Nonspecific binding was estimated in the presence of […] CP101.606. The samples were incubated for 60 min. at 4° C.
The incubation was terminated by filtration of the membrane preparations using Filtermat B (Pharmacia, Uppsala Sweden) and a Micro Cell Harvester (Skatron, Lier, Norway). The Filtermat B had been presoaked with 1% polyethylene imine and carefully washed with 50 mM Tris/HCl-buffer pH 7.7 after the filtration to separate free and bound radioactivity.
The optimal amount of membrane preparation in the assay had been determined and optimized for each membrane preparation separately before the test.
For pipetting of the incubation mixture we routinely used the robot Biomek2000 (Fa. Beckman).
For determination of IC50 values the Hill-plot, 2-parameter-model was used.

rat NR1/NR2B receptor [2] = target: T1, rat NR1/NR2B receptor; assay: RRNR2BB: inhibition of specific binding to the rat NR1/NR2B receptor; details: [3H]-Ifenprodil binding, rat brain membranes, Hill-plot 2-parameter-model
Summary of the method: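 Washed membranes from male Wistar rat forebrain (whole brain minus cerebellum) in 5 mM Tris/1 mM EDTA pH 7.4 used in ifenprodil-site binding, 60 min at 4° C. Nonspecific binding defined with […] CP101.606; bound separated by filtration on PEI-soaked filters. IC50 from Hill plot, 2-parameter model.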

Chain of hERG-receptor (Q12809 whole entry): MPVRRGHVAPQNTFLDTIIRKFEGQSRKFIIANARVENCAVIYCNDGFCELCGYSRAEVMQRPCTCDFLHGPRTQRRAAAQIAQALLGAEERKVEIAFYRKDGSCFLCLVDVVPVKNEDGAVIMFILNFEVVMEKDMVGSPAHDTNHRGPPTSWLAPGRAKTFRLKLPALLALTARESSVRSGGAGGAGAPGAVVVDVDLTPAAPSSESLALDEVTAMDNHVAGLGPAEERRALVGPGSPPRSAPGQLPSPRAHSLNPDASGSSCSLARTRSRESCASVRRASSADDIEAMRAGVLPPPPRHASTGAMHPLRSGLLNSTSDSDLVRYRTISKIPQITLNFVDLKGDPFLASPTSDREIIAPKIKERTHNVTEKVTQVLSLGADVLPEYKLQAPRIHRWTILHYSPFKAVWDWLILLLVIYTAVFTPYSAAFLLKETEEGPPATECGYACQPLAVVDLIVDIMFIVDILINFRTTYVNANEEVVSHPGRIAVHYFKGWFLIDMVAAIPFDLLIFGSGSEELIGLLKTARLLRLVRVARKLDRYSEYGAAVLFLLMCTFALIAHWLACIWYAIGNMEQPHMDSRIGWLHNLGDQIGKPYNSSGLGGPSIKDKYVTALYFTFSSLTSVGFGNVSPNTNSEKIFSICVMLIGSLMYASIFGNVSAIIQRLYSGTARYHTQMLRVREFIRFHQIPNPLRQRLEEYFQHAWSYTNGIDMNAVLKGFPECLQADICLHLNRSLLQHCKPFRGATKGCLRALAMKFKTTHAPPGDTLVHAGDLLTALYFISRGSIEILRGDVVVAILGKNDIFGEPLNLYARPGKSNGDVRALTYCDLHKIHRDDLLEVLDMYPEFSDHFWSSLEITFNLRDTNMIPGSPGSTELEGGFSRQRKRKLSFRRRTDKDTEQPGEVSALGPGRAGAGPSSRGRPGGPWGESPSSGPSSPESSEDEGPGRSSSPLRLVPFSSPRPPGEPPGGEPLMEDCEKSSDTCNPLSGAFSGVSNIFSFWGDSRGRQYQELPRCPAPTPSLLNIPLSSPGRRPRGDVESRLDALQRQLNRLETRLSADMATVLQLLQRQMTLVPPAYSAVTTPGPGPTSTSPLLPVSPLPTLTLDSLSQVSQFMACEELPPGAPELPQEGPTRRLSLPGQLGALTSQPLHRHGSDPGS

| SMILES | IC50 (rat NR1/NR2B receptor [1]) | IC50 (rat NR1/NR2B receptor [2]) | IC50 (hERG-receptor) |
| --- | --- | --- | --- |
| FC(F)(F)c1cc(-n2cc(Cn3ccnc3C3CC3)nn2)ccc1Cl [Example 66, 1-(4-Chloro-3-trifluoromethyl-phenyl)-4-(2-cyclopropyl-imidazol-1-ylmethyl)-1H-[1,2,3]triazole] | 38 nM | 38 nM | 3540 nM |
| FC(F)(F)Oc1cccc(-n2cc(Cn3ccnc3C3CC3)nn2)c1 [Example 67, 4-(2-Cyclopropyl-imidazol-1-ylmethyl)-1-(3-trifluoromethoxy-phenyl)-1H-[1,2,3]triazole] | 34.5 nM | 34.5 nM | 2550 nM |
| FC(F)(F)c1cccc(-n2cc(Cn3ccnc3C3CC3)nn2)c1 [Example 68, 4-(2-Cyclopropyl-imidazol-1-ylmethyl)-1-(3-trifluoromethyl-phenyl)-1H-[1,2,3]triazole] | 91.6 nM | 91.6 nM | 5120 nM |
| FC(F)(F)c1ccc(-n2cc(Cn3ccnc3C3CC3)nn2)cc1 [Example 69, 4-(2-Cyclopropyl-imidazol-1-ylmethyl)-1-(4-trifluoromethyl-phenyl)-1H-[1,2,3]triazole] | 173 nM | 173 nM | 4410 nM |
| Cc1cc(-n2cc(Cn3ccnc3C(C)C)nn2)ccc1Cl [Example 71, 1-(4-Chloro-3-methyl-phenyl)-4-(2-isopropyl-imidazol-1-ylmethyl)-1H-[1,2,3]triazole] | 4.47 nM | 4.47 nM | 10000 nM |
| Cc1cc(-n2cc(Cn3ccnc3CCO)nn2)ccc1Cl [Example 74, 1-(4-Chloro-3-methyl-phenyl)-4-[2-(2-hydroxy-ethyl)-imidazol-1-ylmethyl]-1H-[1,2,3]triazole] | 6.9 nM | 6.9 nM | 33800 nM |
| Cc1cc(-n2cc(Cn3ccnc3CCF)nn2)ccc1Cl [Example 75, 1-(4-Chloro-3-methyl-phenyl)-4-[2-(2-fluoro-ethyl)-imidazol-1-ylmethyl]-1H-[1,2,3]triazole] | 13.5 nM | 13.5 nM | 32800 nM |
| Cc1nccn1Cc1cn(-c2cccc(C3CC3)c2)nn1 [Example 76, 1-(3-Cyclopropyl-phenyl)-4-(2-methyl-imidazol-1-ylmethyl)-1H-[1,2,3]triazole] | 15.9 nM | 15.9 nM | 10300 nM |
| Cc1nccn1Cc1cn(-c2cccc(S(C)(=O)=O)c2)nn1 [Example 77, 1-(3-Methanesulfonyl-phenyl)-4-(2-methyl-imidazol-1-ylmethyl)-1H-[1,2,3]triazole] | 615 nM | 615 nM | 150000 nM |
| CS(=O)(=O)c1cccc(-n2cc(Cn3ccnc3CCF)nn2)c1 [Example 80, 4-[2-(2-Fluoro-ethyl)-imidazol-1-ylmethyl]-1-(3-methanesulfonyl-phenyl)-1H-[1,2,3]triazole] | 2680 nM | 2680 nM | > 100000 nM |
| CC(C)(C)c1nccn1Cc1cn(-c2ccc(F)c(C(F)F)c2)nn1 [Example 87, 1-(3-Difluoromethyl-4-fluoro-phenyl)-4-(2-tert.butyl-imidazol-1-ylmethyl)-1H-[1,2,3]triazole] | 131 nM | 131 nM | 7520 nM |
| OCCc1nccn1Cc1cn(-c2ccc(F)c(C(F)F)c2)nn1 [Example 88, 1-(3-Difluoromethyl-4-fluoro-phenyl)-4-[2-(2-hydroxy-ethyl)-imidazol-1-ylmethyl]-1H-[1,2,3]triazole] | 14.5 nM | 14.5 nM | 93400 nM |
| FC(F)c1cc(-n2cc(Cn3ccnc3C3CC3)nn2)ccc1Cl [Example 90, 1-(4-Chloro-3-difluoromethyl-phenyl)-4-(2-cyclopropyl-imidazol-1-ylmethyl)-1H-[1,2,3]triazole] | 15.4 nM | 15.4 nM | 5350 nM |
| CC(C)c1nccn1Cc1cn(-c2ccc(Cl)c(C(F)F)c2)nn1 [Example 92, 1-(4-Chloro-3-difluoromethyl-phenyl)-4-(2-isopropyl-imidazol-1-ylmethyl)-1H-[1,2,3]triazole] | 5.24 nM | 5.24 nM | 11300 nM |
| CC(C)(C)c1nccn1Cc1cn(-c2ccc(Cl)c(OC(F)F)c2)nn1 [Example 95, 4-(2-tert-Butyl-imidazol-1-ylmethyl)-1-(4-chloro-3-difluoromethoxy-phenyl)-1H-[1,2,3]triazole] | 72.9 nM | 72.9 nM | 5840 nM |
| FCCc1nccn1Cc1cn(-c2ccc(Cl)c(OC(F)F)c2)nn1 [Example 99, 1-(4-Chloro-3-difluoromethoxy-phenyl)-4-[2-(2-fluoro-ethyl)-imidazol-1-ylmethyl]-1H-[1,2,3]triazole] | 6.02 nM | 6.02 nM | 23800 nM |
| Cc1nccn1Cc1cn(-c2cc(F)cc(C(F)F)c2)nn1 [Example 102] | 25.9 nM | 25.9 nM | 16800 nM |
| Cc1nc2ccccc2n1Cc1cn(-c2ccc(Cl)c(Cl)c2)nn1 [Example 117, 1-[[1-(3,4-dichlorophenyl)triazol-4-yl]methyl]-2-methyl-benzimidazole] | 141 nM | 141 nM | 3090 nM |
| OCCc1nccn1Cn1cc(-c2ccc(S(F)(F)(F)(F)F)cc2)nn1 [Example 118, 2-(1-((1-(4-(pentafluoro-l6-sulfanyl)phenyl)-1H-1,2,3-triazol-4-yl)methyl)-1H-imidazol-2-yl)ethan-1-ol] | 263 nM | 263 nM | 12300 nM |

These reach a lower IC50 (rat NR1/NR2B receptor [1]). Values come first.

| IC50 (rat NR1/NR2B receptor [1]) | IC50 (rat NR1/NR2B receptor [2]) | SMILES | IC50 (hERG-receptor) |
| --- | --- | --- | --- |
| 4.11 nM | 4.11 nM | CCc1nccn1Cc1cn(-c2ccc(F)c(C(F)F)c2)nn1 [Example 83, 1-(3-Difluoromethyl-4-fluoro-phenyl)-4-(2-ethyl-imidazol-1-ylmethyl)-1H-[1,2,3]triazole] | 16700 nM |
| 4.05 nM | 4.05 nM | Cc1nccn1Cc1cn(-c2ccc(F)c(C(C)(F)F)c2)nn1 [Example 105, 1-[3-(1,1-Difluoro-ethyl)-4-fluoro-phenyl]-4-(2-methyl-imidazol-1-ylmethyl)-1H-[1,2,3]triazole] | 73100 nM |
| 3.91 nM | 3.91 nM | FC(F)Oc1cc(-n2cc(Cn3ccnc3C3CC3)nn2)ccc1Cl [Example 94, 1-(4-Chloro-3-difluoromethoxy-phenyl)-4-(2-cyclopropyl-imidazol-1-ylmethyl)-1H-[1,2,3]triazole] | 3020 nM |
| 3.37 nM | 3.37 nM | Cc1nccn1Cc1cn(-c2ccc(Cl)c(C(F)F)c2)nn1 [Example 89, 1-(4-Chloro-3-difluoromethyl-phenyl)-4-(2-methyl-imidazol-1-ylmethyl)-1H-[1,2,3]triazole] | 8520 nM |
| 2.43 nM | 2.43 nM | CCc1nccn1Cc1cn(-c2ccc(Cl)c(C(F)F)c2)nn1 [Example 91, 1-(4-Chloro-3-difluoromethyl-phenyl)-4-(2-ethyl-imidazol-1-ylmethyl)-1H-[1,2,3]triazole] | 7190 nM |
| 1.9 nM | 1.9 nM | Cc1nccn1Cc1cn(-c2ccc(F)c(OC(F)F)c2)nn1 [Example 100, 1-(3-Difluoromethoxy-4-fluoro-phenyl)-4-(2-methyl-imidazol-1-ylmethyl)-1H-[1,2,3]triazole] | 12800 nM |
| 1.84 nM | 1.84 nM | CCc1nccn1Cc1cn(-c2ccc(Cl)c(C)c2)nn1 [Example 70, 1-(4-Chloro-3-methyl-phenyl)-4-(2-ethyl-imidazol-1-ylmethyl)-1H-[1,2,3]triazole] | 3920 nM |
| 1.6 nM | 1.6 nM | CCc1nccn1Cc1cn(-c2ccc(Cl)c(OC(F)F)c2)nn1 [Example 96, 1-(4-Chloro-3-difluoromethoxy-phenyl)-4-(2-ethyl-imidazol-1-ylmethyl)-1H-[1,2,3]triazole] | 4410 nM |
